Laboratory results: patent publication US9193819B2, “Polymers, substrates, methods for making such, and devices comprising the same” (Avertica, Inc., priority 2013, dated 2015)
Structures can show the parent of a compound that is named as a salt.

Test system: mushroom tyrosinase (polyphenol oxidase) Sigma T3824
Assay: Testing of polymer production in enzymatic tyrosinase (polyphenol oxidase) reaction
Assay type: biochemical
Set-up: key: +++: Reacted within about 1 hour; ++: reacted within about 3 hours; +: reacted within about 24 hours; +/−: inconclusive results; −: no reaction
Conditions: approx. 50 mM potassium phosphate buffer pH 6.5, approx. 5 mM substrate, 100 to 10,000 units enzyme, observed over 24 hours
Procedure: All reactions were carried out in approximately 50 mM potassium phosphate buffer, pH 6.5 with approximately 5 mM substrate and mushroom tyrosinase (polyphenol oxidase) Sigma T3824 in an amount of 100 to 10,000 units. Reaction volumes varied from 200 μl to 2 ml. In cases where substrates were not completely solubilized, then a saturated solution was used as the limit of solubility. In some cases, a solution of DMSO was used to increase solubility of the substrates. […] The reactions were observed over a 24 hour period for the production of polymers, and the presence and color of polymer and solution was recorded.
The production of polymers in each reaction was visible as a precipitate in the well of a 96 well plate or in the reaction mixture on a glass slide.

Row | Result (polymer production in tyrosinase reaction) | SMILES
1 | + (reacted within about 24 hours) | Oc1ccc2cc(O)ccc2c1 [2,6 dihydroxnaphthalene]
2 | +++ (Reacted within about 1 hour) | Oc1ccc2[nH]ccc2c1 [5-hydroxyindole]
3 | ++ (reacted within about 3 hours) | Oc1ccc2cc[nH]c2c1 [6 Hydroxyindole]
4 | ++ (reacted within about 3 hours) | CN[C@@H](Cc1ccc(O)cc1)C(=O)O [N-methyl tyrosine]
5 | ++ (reacted within about 3 hours) | N[C@@H](Cc1ccc(O)cc1)C(=O)O [Tyrosine]

Row | SMILES | Result (polymer production in tyrosinase reaction)
6 | Cl.NCCc1ccccc1 [Beta phenylethylamine HCL] | +/−
7 | c1ccc2[nH]ccc2c1 [Indole] | −
8 | Cl.NCCc1ccc(O)cc1 [Tyramine HCl] | +++ (Reacted within about 1 hour)
9 | NCCc1ccc(O)cc1 [Tyramine] | +++ (Reacted within about 1 hour)

Same assay, conditions: as E1, substrate (or a marked component) dissolved in 20% DMSO

Row | Result (polymer production in tyrosinase reaction) | SMILES
10 | + (reacted within about 24 hours) | Oc1ccc(-c2cc(-c3ccc(O)cc3)cc(-c3ccc(O)cc3)c2)cc1 [1,3,5 Tris(4hydroxyphenyl)benzene]
11 | − | Oc1ccc2c(c1)[nH]c1ccccc12 [2 Hydroxy carbazole]

Row | SMILES | Result (polymer production in tyrosinase reaction)
12 | CC1=NCCc2c1[nH]c1cc(O)ccc21 [Harmalol HCl dehydrate] | −
